Results: patent US10793601B2, “Therapeutic spalt-like transcription factor 4 (SALL4) peptide” (National University of Singapore, priority 2016, dated 2020)
Ends that are not written are not given here.

Key:
SNU398 cells = test: Cell viability assay in SNU398 cells; assay type: cell-based; conditions: ratio of EC50, SNU398
Description: FIGS. 3A-3E. Key residues involved in SALL4 (1-12)-RBBp4 binding. […] The difference in the binding free energy (ΔΔGbind) of the alanine mutants (ΔGmutant, Ala7 was mutated to glycine) and wild type (ΔGwild type) was calculated (ΔΔGbind=ΔGmutant−ΔGwild type). ΔΔGbind was tabulated (left) and plotted in a bar chart (right). […] Mutated residues are highlighted in red. The IC50 of each peptide, including WT, was determined by Fluorescence Polarization (FP). Different concentrations of each peptide were titrated into a mixture of 0.04 μM RBBp4 and 0.01 μM of C-labelled FITC-SALL4 WT peptide. Polarization was measured in mP. […] Pep-1 carrier was added to the peptide to facilitate cellular penetration of the peptides.
FIGS. 5A-5B. Development of a potent therapeutic peptide FFW.
SNU398 was grown in RPMI supplemented with 10% fetal bovine serum (FBS) at 37° C. in a humidified atmosphere of 5% CO2. 3000 cells were seeded in each well of a 96 well plate with 100 μL of medium. Before peptide treatment, cells were washed twice with PBS and treated with different concentrations of peptide in OPTIMEM (LifeTech). Media was added after 4 hrs of incubation at 37° C., and cells incubated for another 68 hrs. Tetrazolium (CellTiter96 AQueous One Solution Cell Proliferation Assay, Promega) was added after 72 hrs incubation with the peptides, and the plate was read at a plate reader at 490 nm after 1 hr of incubation in the dark at 37° C.

PTEN = PTEN mRNA in resected SNU398 tumors by real-time PCR; assay type: in vivo, NOD/SCID/gamma mice; conditions: harvested SNU398 tumors
Description: FIGS. 7A-7E. Anti-tumor activity of the candidate therapeutic peptide FFW. FIG. 7A: 7.2×10^5 SNU398 cells were inoculated subcutaneously into the right flank of NOD/SCID/gamma mice (NSG mice). Tumors were allowed to grow for one week before peptide treatments were administered every alternate day for a total of five injections. FIG. 7B: Tumor growth was documented by plotting tumor volume against time. […] FIG. 7C: Relative size of tumors resected on day 20. FIG. 7D: tumor weight was determined (n=5). PEN-FFW treated mice had the smallest tumors (μ=88.34 mg) compared to PEN (μ=1550.78 mg), PEN-MUT (μ=1273.46 mg) and PEN-WT (μ=563.46 mg). FIG. 7E: Total RNA was isolated from the resected tumors and expression of PTEN was measured using real-time PCR.
Tumors resected from mice were homogenized in Trizol. Total RNA was extracted and treated with RNase-free DNase (Qiagen). Reverse transcription was carried out using Superscript III Reverse Transcriptase. Quantitative PCR was performed using GoTaq qPCR Master Mix (Promega). Amplification was done with a Corbett Rotor Gene 6000 (Qiagen). Each sample was assayed in triplicate.

PLC8024 tumor xenografts = test: PLC8024 xenograft (Sorafenib-resistant HCC); assay type: in vivo, mice
Description: FIGS. 9A-9E. Clinical significance of PEN-FFW compared to Sorafenib. FIG. 9A: PEN-FFW treated SNU398 tumor xenografts were compared to that of Sorafenib treated xenografts. FIG. 9B: PEN-FFW treated PLC8024 tumor xenografts were compared to that of Sorafenib treated xenografts. Mice body weight was measured to access toxicity of various peptides. FIG. 9C: Body weight of mice at day 17. FIG. 9D: Differences of body weight compared to day 0 (As indicated by the arrow in far left of FIG. 7A). FIG. 9E: Body weight of mice at day 19th in the experiment shown in FIG. 9A comparing effect of Sorafenib and PEN-FFW. Data represent mean±s.d. (n=5).
Clinical significance of PEN-FFW was studied in vivo by benchmarking against current therapy using Sorafenib. PEN-FFW treated SNU398 tumor xenografts were compared to that of Sorafenib treated xenografts (FIG. 9A). […] Potential therapeutic effect of PEN-FFW in HCC patients that are refractory to Sorafenib treatment was studied also studied in vivo. using a HCC cell line, PLC8024 which is SALL4 positive, CD133+ and is both chemo- and radio-resistant (Li et al., BMC Cancer 2016, 16, 15; Ma et al., Oncogene 2008, 27: 1749-1758), for the xenograft study.

SNU398 = test: RNA-seq transcriptome analysis of treated SNU398; assay type: cell-based; conditions: SNU398 treated 8 hrs
Description: SNU398 were treated PEN, PEN-MUT, PEN-WT & PEN-FFW for 8 hrs and paired-end RNA-seq was performed for the treated samples. RNA-seq reads of each sample were mapped to hg19 using the STAR aligner. Normalization between the samples was based on the proportionality of the numbers of the mapped reads. The expression fold change of a transcript was obtained using linear regression of the reads between the two samples cross all exons. Differential expression between two samples was selected by using the fold change cut off of 2. Hierarchical clustering was performed based on average linkage to generate the clustering tree as well as heat maps. For identification of enriched gene sets or pathways, Gene Set Enrichment Analysis (GSEA) was performed based on the normalized data and using the GSEA tool (broad.mit.edu/gsea/) with msigdb.v5.0.

[1] = mouse, in vivo
Description: (§1) Mice were exposed to intraperitoneal (IP) administration of PEN-FFW (30 mg/kg) or vehicle (10% DMSO) every alternate day over the course of 17 days to a cumulative dose of 270 mg/kg.
(§2) Toxicity of PEN-FFW was studied in vivo in C57BL/6 mice (n=4). Theses mice were exposed to intraperitoneal (IP) administration of PEN-FFW (30 mg/kg) or vehicle (10% DMSO) every alternate day over the course of 17 days to a cumulative dose of 270 mg/kg. […] After a 7-day washout period, complete blood counts and liver function assay tests were performed, and organs were harvested for histology. Potential liver injury caused by the peptide treatment was studied by testing serum AST (Aspartate Aminotransferase) and ALT (Alanine Aminotransferase) levels.
(§3) 6-8-week old female C57BL mice were given PEN-FFW (30 mg/kg) (n=3) or DMSO control (n=2) every alternate day, for a total of 17 day, to a cumulative dose of 270 mg/kg. The mice were observed and weighted throughout the period. A 7 days wash out period were given before the mice were sacrificed with their blood and organs collected. Blood count were perform immediately with Celltact MEK6450 (Nihon Kohden, Japan), and serum were subjected for ALT and AST assay on the same day. ALT and AST were performed according to the manufacturer's protocol (Sigma-Aldrich, Merck, Germany). The organs were fixed with neutral buffered Formalin and embedded in paraffin. […]

in vitro = conditions: human, plasma, pH 7.4
Description: PEN-FFW was incubated with human plasma (pH7.4) at 37° C. over a 24 hour period (5 timepoints). Incubations were performed at a concentration of 1 μM (final DMSO concentration 2.5%). Reactions were terminated at 0, 5, 10, 15, 30 min, or 0, 1, 2, 4 and 24 hour, by addition of 2 volumes of methanol containing 1% Formic acid. The samples were centrifuged (2500 rpm, 45 min, 4° C.) and the supernatants diluted with 2 volumes of 0.2% Formic acid (aq) (containing Metoprolol (internal standard)). […] The percentage of parent peptide remaining at each time point relative to the 0 min sample was calculated from LC-MS/MS peak area ratios (compound peak area/internal standard peak area).

[2] = Toxicity study, repeated IP administration; conditions: 30 mg/kg IP every alternate day, 17 days, cumulative 270 mg/kg
Description: as §1, §2, §3

In the case of RQIKIWFQNRRMKWKKRRKFAKFQWI [PEN-FFW], the “improvement as compared with PEN-WT” value (SNU398 cells) is reported as 4 fold, the “increase in PTEN expression in tumors compared to PEN control mice” value (PTEN) is reported as 9 fold and the tumor inhibitory effect (PLC8024 tumor xenografts) is reported as “minimal tumor inhibitory effect”. The “share of DEGs upregulated” value (SNU398) was “more than 99%”, the “tissue damage by microscopic examination of major organs” value [1] was “No tissue damage was observed” and the remaining at 0.5 h, 1 μM (in vitro) was over 90%. The remaining at 4 h, 1 μM (in vitro) was over 50%, the remaining at 24 h, 1 μM (in vitro) was about 20% and the “signs of toxicity (weight loss, lethargy, loss of mobility)” value [2] was “did not exhibit notable signs of toxicity”.
